In patent US20180200263A1, “TOPICAL TREATMENT REGIMENS CONTAINING A PROSTAGLANDIN F2a ANALOG AND A TOPICAL STEROID” (priority 2015, published 2018):

System: subjects with vitiligo (depigmented areas on neck, trunk and extremities)
Test: Efficacy and safety study in vitiligo, blinded investigator evaluation on a score of 0 to 7
Assay type: in vivo
Conditions: share of the subjects in the group; after the 20 week topical treatment regimen was completed; nonfacial areas
Method: An efficacy and safety study was conducted to compare the effects of bimatoprost monotherapy, mometasone monotherapy, and the combination of bimatoprost and mometasone. 18 randomized subjects completed the 20 week study, five coming in each of the bimatoprost monotherapy and mometasone monotherapy groups with the other eight coming in the bimatoprost/mometasone combination group. Subjects with vitiligo applied the corresponding drug(s) to depigmented areas on their neck, truck, and extremities. Per FDA request, facial areas where not treated during the study. For the bimatoprost monotherapy group, subjects were instructed to administer bimatoprost twice daily (morning and evening) for all 20 weeks. For the mometasone monotherapy group, subjects were instructed to administer mometasone once daily in the morning for weeks 1-12 and 17-20. Placebo (Cetaphil) was instructed to be administered in the morning for weeks 13-16 and in the evening for all 20 weeks. For the bimatoprost/mometasone combination group, subjects were instructed to administer mometasone once daily in the morning for weeks 1-12 and 17-20 and placebo was administered in the morning for weeks 13-16. Subjects were instructed to administer bimatoprost once daily evening for all 20 weeks. Subjects in either the bimatoprost monotherapy group or the bimatoprost/mometasone combination group the subjects were instructed to administer bimatoprost in the form of a 0.03 wt. % solution which was to be applied in a dose of 1 to 2 drops per 2 cm^2 body surface area. Subjects in either the mometasone monotherapy group or the bimatoprost/mometasone combination group the subjects were instructed to administer mometasone in the form of 0.1 wt. % mometasone furoate cream which was to be applied in a dose of 1 to 2 pea-sized quantities per anatomic area. The subjects were blind as to which group they were in and therefore which drug(s) they were administering. During the study period, the subjects were periodically evaluated by an investigator. The investigators evaluated the subjects on a score of 0 to 7 with 0 meaning that the subject's condition was worse, 1 being unchanged, 2 being slight improvement (approximately 10% improvement), 3 being mild improvement (approximately 10 to 25% improvement), 4 being moderate improvement (approximately 25 to 50% improvement), 5 being marked improvement (approximately 50 to 75% improvement), 6 being almost cleared (approximately 75 to 99% improvement), 7 being cleared (100% improvement). Like the subjects, the investigators were blind as to which group the subjects they were evaluating were in and therefore which drug(s) they were evaluating were administering.

| Structure (SMILES) | subjects with mild improvement (score 3, approximately 10 to 25% improvement) [%] | subjects with moderate improvement (score 4, approximately 25 to 50% improvement) [%] | subjects with slight improvement (score 2, approximately 10% improvement) [%] |
| --- | --- | --- | --- |
| CCNC(=O)CCC/C=C\C[C@@H]1[C@@H](/C=C/[C@@H](O)CCc2ccccc2)[C@H](O)C[C@@H]1O [bimatoprost, Bimatoprost] | 60 | 40 |  |
| C[C@@H]1C[C@H]2[C@@H]3CCC4=CC(=O)C=C[C@]4(C)[C@@]3(Cl)[C@@H](O)C[C@]2(C)[C@@]1(OC(=O)c1ccco1)C(=O)CCl [mometasone, mometasone furoate] | 40 |  | 60 |
